The term IC50 denotes the concentration that gives 50% inhibition. The term inhibition denotes the share of the control response that was lost under treatment. High values mean a strong effect, low ones a weak effect.

From patent publication US4791133A, “Phenylene, furyl, and thienyl leukotriene B4 analogues” (G. D. Searle & Co., priority 1987, dated 1988) come the findings set out here.

The structures appear in SMILES notation. “And” between values parts separate entries of the source, which are not always exact repeats. Identical values can stand only once. Counter-ions that a name gives are not always drawn.

The target in one assay is T1, LTB4 receptors (Homo sapiens, UniProt Q15722).
T1 construct: neutrophils were purified from venous blood of normal human donors; endogenous in cells; host or cells: neutrophils purified from venous blood of normal human donors (purity ≥95%)
Nature of the assay: LTB4 Receptor Binding Assay ((3H) LTB4, human neutrophils). The conditions noted are these: 0.6 nM (3H) LTB4, human neutrophils; for IC50: 0° C., 45 minutes, pH 7.4, read-out: Inhibition of Receptor Binding of LTB4 IC50. The source says: (§1) For use in both the "LTB4 receptor Binding Assay" and the "Human Neutrophil Degranulation Assay", neutrophils were purified from venous blood of normal human donors using standard techniques of dextran sedimentation, centrifugation on Histopaque® (density solution) and hypotonic lysis of erythrocytes (Boyum, A., Isolation of Leukocytes From Human Blood: Further Observations. Scand. J. Lab. Clin. Inves. 21 (Suppl. 97): 31, 1968). The purity of isolated neutrophils was ≥95%.
Neutrophils (4-6×10^6) in 1 ml of Hanks' balanced salt solution containing 10 mM Hepes Buffer (HBSS), pH 7.4 and 30 μM nordihydroguaiaretic acid were incubated with 0.6 nM (^3 H) LTB4 in the presence or absence of test compounds. The incubation was carried out at 0° C. for 45 minutes and terminated by adding 5 ml of ice-cold HBSS followed by rapid filtration of incubation mixture under vacuum through GF/C glass fiber filters. The filters were further washed with 10 ml HBSS and their radioactivity was determined. Specific binding was defined as the difference between total binding and nonspecific binding which was not displaced by 10^-7 M unlabeled LTB4.
The inhibition of specific binding was determined for representative compounds of this invention, and the corresponding IC50 values calculated (Table 1). An IC50 is the concentration of the compound of interest which will inhibit the binding of LTB4 by 50% of the LTB4 receptors. For example, for the compound of Example 7, the IC50 was determined to be approximately 5 μM.

For assay [1], the system named is LTB4 induced neutrophil degranulation. Description: Human Neutrophil Degranulation Assay (LTB4 induced myeloperoxidase release). The conditions noted are these: LTB4 5×10^-8 M, cytochalasin B, human neutrophils, 7 minutes preincubation with compound, read-out: Inhibition of LTB4 Induced Neutrophil Degranulation IC50. The format is cell-based.
Description: as §1
LTB4 induced neutrophil degranulation was determined by measuring the release of myeloperoxidase activity into the incubation medium. Neutrophils (3×10^6) in 1 ml HBSS solution was preincubated with cytochalasin B(5 μg) at 37° C. for 5 minutes, followed by preincubation with test compounds for 7 minutes. Neutrophils were then incubated for 2 to 20 minutes with either LTB4 (5×10^-8 M) or the chemotactic peptide f-met-leu-phe ([…]) to induce degranulation. Following incubation, samples were centrifuged and myleoperoxidase was extracted from the cell pellets by sonication in phosphate buffer containing 0.4% Triton X-100. Triton X-100 was also added to the supernatents to a concentration of 0.4%. The supernatants and the pellet extracts were then assayed spectrophotometrically for myeloperoxide activity by determining the rate of decomposition of H2 O2 with o-dianisidine as hydrogen donor as described by Renlund, D. G., MacFarlane, J. L., Christensen, R. D., Lynch, R. E., and Rothstein, G., A Quantitative And Sensitive Method For Measurement Of Myeloperoxidose, Clinical Research 28: 75A, 1980). Myeloperoxidase activity released into the supernatant was expressed as the percent of the average total activity (pellet plus supernatant).
The inhibition of LTB4 induced neutrophil degranulation was determined for representative compounds of this invention and their corresponding IC50 values were calculated (Table 1). The concentration of a compound which inhibited LTB4 induced neutrophil degranulation by 50% was determined to be its IC50 value.

T1 sequence (Q15722 whole entry): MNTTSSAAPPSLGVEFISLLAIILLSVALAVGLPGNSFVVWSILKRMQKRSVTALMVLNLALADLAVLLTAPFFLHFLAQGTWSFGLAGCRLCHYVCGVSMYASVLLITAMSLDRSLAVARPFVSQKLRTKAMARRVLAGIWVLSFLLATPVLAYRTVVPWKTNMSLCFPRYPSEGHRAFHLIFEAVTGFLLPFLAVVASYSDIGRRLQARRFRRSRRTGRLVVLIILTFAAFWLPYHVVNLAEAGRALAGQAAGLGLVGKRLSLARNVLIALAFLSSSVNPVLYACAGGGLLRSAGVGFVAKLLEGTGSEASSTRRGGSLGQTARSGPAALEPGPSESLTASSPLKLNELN

Consider `CCCCC/C=C\CC(O)c1ccc(/C=C\[C@@H](O)CCCC(=O)O)cc1` (stereo partly drawn) [Example 7, 7[4-(1-hydroxy-3Z-nonenyl)phenyl]-5S-hydroxy-6Z-heptenoic acid, lithium salt], for which the IC50 was ~5000 nM and 5000 nM on LTB4 receptors; 700 nM in assay [1].
Regarding `CCCCCCCCC(O)c1ccc(/C=C\C(O)CCCC(=O)OC)cc1` (stereo not shown) [Example 12, Methyl 7-[4-(1-hydroxynonyl)phenyl]-5-hydroxy-6Z-heptenoate], the results for the IC50 (at LTB4 receptors; in assay [1]) were 1000 nM and 650 nM, respectively.
Regarding `CCCCCCCCC(O)c1ccc(/C=C\C(O)CCCC(=O)O)cc1` (stereo not shown) [Example 21, 7-[4-(1-hydroxynonyl)phenyl]-5-hydroxy-6Z-heptenoic acid, lithium salt], the IC50 on LTB4 receptors was determined as 2000 nM; in assay [1] it was 1000 nM.
`CCCCCCCCC(O)c1ccc(C#CC(O)CCCC(=O)O)s1` (stereo not shown) [Example 22, 7-[2-[5-(1-hydroxynonyl)]thienyl-5-hydroxy-6Z-heptynoic acid, lithium salt] yielded an inhibition at 10 µM at LTB4 receptors (at 10μM) of 20%. Moreover, in assay [1], the half-maximal inhibitory concentration (IC50) was 8700 nM.
On to `CCCCCCCCC(O)c1ccc(/C=C\C(O)CCCC(=O)O)s1` (stereo not shown) [Example 23, 7-[2-[5-(1-hydroxynonyl)]thienyl-5-hydroxy-6Z-heptenoic acid, lithium salt], for which the figures for the IC50 (at LTB4 receptors; in assay [1]) were 5000 nM and 1800 nM, respectively.
